Data published in US10913727B2, “Modulators of the integrated stress pathway” (Calico Life Sciences LLC, priority 2016, dated 2021).

Each compound was assayed on HEK293T cells carrying the ATF4 luciferase reporter (assay: ATF4-Luc assay, in vitro model of Vanishing Cell White Matter Disease (VWMD)). Conditions: Homo sapiens, HEK-293T, 1 μg/mL tunicamycin, 7 hours, One Glo luminescence.
Type: cell-based
In short: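 Compound at 200 nM and tunicamycin at 1 μg/mL were given together for 7 h to HEK293T cells stably transduced with an ATF4 5′-UTR-driven firefly luciferase reporter. Read-out by luminescence, reported as EC50.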

Q: For `COc1ccnc(C(=O)NC23CCC(NC(=O)COc4ccc(Cl)c(F)c4)(CC2)C(O)C3)c1` (centres unmarked) [Compound 924, N-{4-[2-(4-chloro-3-fluorophenoxy)acetamido]-3-hydroxybicyclo[2.2.2]octan-1-yl}-4-methoxypyridine-2-carboxamide], which EC50 is on record?
A: > 2000 nM

Q: With `COC/C=C/c1cnc(C(=O)NC23CC(NC(=O)COc4ccc(Cl)c(F)c4)(C2)C3)cn1` [Compound 171, N-{3-[2-(4-chloro-3-fluorophenoxy)acetamido]bicyclo[1.1.1]pentan-1-yl}-5-[(1E)-3-methoxyprop-1-en-1-yl]pyrazine-2-carboxamide] as the compound, how does the EC50 read?
A: 50 to 250 nM

Q: With `O=C(COc1ccc(Cl)c(F)c1)NC12CC(NC(=O)c3cc4ncccn4n3)(C1)C2` [Compound 122, N-{3-[2-(4-chloro-3-fluorophenoxy)acetamido]bicyclo[1.1.1]pentan-1-yl}pyrazolo[1,5-a]pyrimidine-2-carboxamide] as the compound, how does the EC50 read?
A: 1000 to 2000 nM

Q: How did the EC50 turn out when `CC(=O)Nc1ccc(C(=O)NC23CC(NC(=O)COc4ccc(Cl)c(F)c4)(C2)C3)cc1` [Compound 816, 4-acetamido-N-{3-[2-(4-chloro-3-fluorophenoxy)acetamido]bicyclo[1.1.1]pentan-1-yl}benzamide] was run?
A: > 2000 nM

Q: `O=C(COc1ccc(Cl)c(F)c1)NC12CC(NC(=O)c3cc(N4CC(F)(F)C4)ccn3)(C1)C2` [Compound 189, N-{3-[2-(4-chloro-3-fluorophenoxy)acetamido]bicyclo[1.1.1]pentan-1-yl}-4-(3,3-difluoroazetidin-1-yl)pyridine-2-carboxamide] was tested. Which EC50 did it give?
A: 250 to 1000 nM

Q: With `O=C(COc1ccc(Cl)c(F)c1)NC12CCC(NC(=O)c3cc(C4CCCCC4)no3)(CC1)CC2O` (centres unmarked) [Compound 408, N-{4-[2-(4-chloro-3-fluorophenoxy)acetamido]-3-hydroxybicyclo[2.2.2]octan-1-yl}-3-cyclohexyl-1,2-oxazole-5-carboxamide] as the compound, how does the EC50 read?
A: > 2000 nM

Q: For `CCc1ccc(C(=O)NC23CCC(NC(=O)COc4ccc(Cl)c(F)c4)(CC2)[C@@H](O)C3)nc1` [Compound 754, N-{(3S)-4-[2-(4-chloro-3-fluorophenoxy)acetamido]-3-hydroxybicyclo[2.2.2]octan-1-yl}-5-ethylpyridine-2-carboxamide], which EC50 is on record?
A: < 50 nM

Q: With `N#CCc1ccccc1C(=O)NC12CC(NC(=O)COc3ccc(Cl)c(F)c3)(C1)C2` [Compound 206, N-{3-[2-(4-chloro-3-fluorophenoxy)acetamido]bicyclo[1.1.1]pentan-1-yl}-2-(cyanomethyl)benzamide] as the compound, how does the EC50 read?
A: 250 to 1000 nM

Q: Which EC50 does the source give for `Cc1nn(C)c2ncnc(NC34CC(NC(=O)COc5ccc(Cl)c(F)c5)(C3)C4)c12` [Compound 435, 2-(4-chloro-3-fluorophenoxy)-N-{3-[(1,3-dimethyl-1H-pyrazolo[3,4-d]pyrimidin-4-yl)amino]bicyclo[1.1.1]pentan-1-yl}acetamide] here?
A: > 2000 nM

Q: `CC(C)(C)OC(=O)N1CCC=C(c2ncc(C(=O)NC34CC(NC(=O)COc5ccc(Cl)c(F)c5)(C3)C4)o2)C1` [Compound 150, tert-butyl 5-[5-({3-[2-(4-chloro-3-fluorophenoxy)acetamido]bicyclo[1.1.1]pentan-1-yl}carbamoyl)-1,3-oxazol-2-yl]-3,6-dihydropyridine-1(2H)-carboxylate] was tested. Which EC50 did it give?
A: 50 to 250 nM

Q: `O=C(COc1ccc(Cl)c(F)c1)NC12CC(Nc3cnn(CC(F)(F)F)c(=O)c3Cl)(C1)C2` [Compound 416, 2-(4-chloro-3-fluorophenoxy)-N-(3-{[5-chloro-6-oxo-1-(2,2,2-trifluoroethyl)-1,6-dihydropyridazin-4-yl]amino}bicyclo[1.1.1]pentan-1-yl)acetamide] was tested. Which EC50 did it give?
A: > 2000 nM

Q: For `O=C(COc1ccc(Cl)c(F)c1)NC12CC(Nc3ccc(C(F)(F)F)nc3)(C1)C2` [Compound 104, 2-(4-chloro-3-fluorophenoxy)-N-(3-{[6-(trifluoromethyl)pyridin-3-yl]amino}bicyclo[1.1.1]pentan-1-yl)acetamide], which EC50 is on record?
A: 250 to 1000 nM

Q: With `COc1cc(C(=O)NC23CCC(NC(=O)COc4ccc(Cl)c(F)c4)(CC2)C(O)C3)on1` (centres unmarked) [Compound 576, N-{4-[2-(4-chloro-3-fluorophenoxy)acetamido]-3-hydroxybicyclo[2.2.2]octan-1-yl}-3-methoxy-1,2-oxazole-5-carboxamide] as the compound, how does the EC50 read?
A: 50 to 250 nM

Q: With `COc1nccnc1C(=O)NC12CCC(NC(=O)COc3ccc(Cl)c(F)c3)(CC1)C(O)C2` (centres unmarked) [Compound 274, N-{4-[2-(4-chloro-3-fluorophenoxy)acetamido]-3-hydroxybicyclo[2.2.2]octan-1-yl}-3-methoxypyrazine-2-carboxamide] as the compound, how does the EC50 read?
A: 250 to 1000 nM

Q: With `O=C(COc1ccc(C(F)(F)F)nc1)NC12CC(NC(=O)c3ccc(OC(F)(F)F)cn3)(C1)C2` [Compound 454, 5-(trifluoromethoxy)-N-[3-(2-{[6-(trifluoromethyl)pyridin-3-yl]oxy}acetamido)bicyclo[1.1.1]pentan-1-yl]pyridine-2-carboxamide] as the compound, how does the EC50 read?
A: 50 to 250 nM

Q: With `Cc1ncc(C(=O)NC23CC(NC(=O)COc4ccc(Cl)c(Cl)c4)(C2)C3)s1` [Compound 585, N-{3-[2-(3,4-dichlorophenoxy)acetamido]bicyclo[1.1.1]pentan-1-yl}-2-methyl-1,3-thiazole-5-carboxamide] as the compound, how does the EC50 read?
A: 50 to 250 nM

Q: How did the EC50 turn out when `O=C(COc1ccc(Cl)c(Cl)c1)NC12CC(NC(=O)c3nc(C4CC4)cs3)(C1)C2` [Compound 697, 4-cyclopropyl-N-{3-[2-(3,4-dichlorophenoxy)acetamido]bicyclo[1.1.1]pentan-1-yl}-1,3-thiazole-2-carboxamide] was run?
A: < 50 nM

Q: `O=C(COc1ccc(Cl)c(F)c1)NC12CCC(NC(=O)c3ccc(C(F)F)s3)(CC1)CC2O` (centres unmarked) [Compound 623, N-{4-[2-(4-chloro-3-fluorophenoxy)acetamido]-3-hydroxybicyclo[2.2.2]octan-1-yl}-5-(difluoromethyl)thiophene-2-carboxamide] was tested. Which EC50 did it give?
A: 50 to 250 nM

Q: With `Cc1scnc1C(=O)NC12CC(NC(=O)COc3ccc(Cl)c(F)c3)(C1)C2` [Compound 541, N-{3-[2-(4-chloro-3-fluorophenoxy)acetamido]bicyclo[1.1.1]pentan-1-yl}-5-methyl-1,3-thiazole-4-carboxamide] as the compound, how does the EC50 read?
A: 1000 to 2000 nM

Q: Which EC50 does the source give for `Cc1cc(C)c(C(=O)NC23CC(NC(=O)COc4ccc(Cl)c(F)c4)(C2)C3)cn1` [Compound 815, N-{3-[2-(4-chloro-3-fluorophenoxy)acetamido]bicyclo[1.1.1]pentan-1-yl}-4,6-dimethylpyridine-3-carboxamide] here?
A: > 2000 nM

Q: With `CC(C)Oc1ccc(C(=O)NC23CC(NC(=O)COc4ccc(Cl)cc4)(C2)C3)nc1` [Compound 185, N-{3-[2-(4-chlorophenoxy)acetamido]bicyclo[1.1.1]pentan-1-yl}-5-[(propan-2-yl)oxy]pyridine-2-carboxamide] as the compound, how does the EC50 read?
A: 250 to 1000 nM

Q: With `Cc1cc(C(=O)NC23CC(NC(=O)COc4ccc(Cl)c(F)c4)(C2)C3)n(C)n1` [Compound 241, N-{3-[2-(4-chloro-3-fluorophenoxy)acetamido]bicyclo[1.1.1]pentan-1-yl}-1,3-dimethyl-1H-pyrazole-5-carboxamide] as the compound, how does the EC50 read?
A: < 50 nM

Q: Which EC50 does the source give for `O=C(COc1ccc(Cl)c(F)c1)NC12CCC(NC(=O)c3cncs3)(CC1)CC2O` (centres unmarked) [Compound 593, N-{4-[2-(4-chloro-3-fluorophenoxy)acetamido]-3-hydroxybicyclo[2.2.2]octan-1-yl}-1,3-thiazole-5-carboxamide] here?
A: 50 to 250 nM

Q: `CC(C)c1oncc1C(=O)NC12CC(NC(=O)COc3ccc(Cl)c(F)c3)(C1)C2` [Compound 855, N-{3-[2-(4-chloro-3-fluorophenoxy)acetamido]bicyclo[1.1.1]pentan-1-yl}-5-(propan-2-yl)-1,2-oxazole-4-carboxamide] was tested. Which EC50 did it give?
A: > 2000 nM

Q: How did the EC50 turn out when `Cc1cc2c(NC34CC(NC(=O)COc5ccc(OC(F)F)cc5)(C3)C4)nccn2n1` [Compound 438, 2-[4-(difluoromethoxy)phenoxy]-N-{3-[(2-methylpyrazolo[1,5-a]pyrazin-4-yl)amino]bicyclo[1.1.1]pentan-1-yl}acetamide] was run?
A: 250 to 1000 nM

Q: `CSc1sc(C(=O)NC23CC(NC(=O)COc4ccc(Cl)c(F)c4)(C2)C3)cc1C#N` [Compound 897, N-{3-[2-(4-chloro-3-fluorophenoxy)acetamido]bicyclo[1.1.1]pentan-1-yl}-4-cyano-5-(methylsulfanyl)thiophene-2-carboxamide] was tested. Which EC50 did it give?
A: > 2000 nM

Q: `O=C(COc1ccc(Cl)c(F)c1)NC12CC(NC(=O)c3cnc(C4CC4)nc3)(C1)C2` [Compound 888, N-{3-[2-(4-chloro-3-fluorophenoxy)acetamido]bicyclo[1.1.1]pentan-1-yl}-2-cyclopropylpyrimidine-5-carboxamide] was tested. Which EC50 did it give?
A: 50 to 250 nM

Q: For `Cc1ccc2nc(C(=O)NC34CCC(NC(=O)COc5ccc(Cl)c(F)c5)(CC3)C(O)C4)cn2c1` (centres unmarked) [Compound 597, N-{4-[2-(4-chloro-3-fluorophenoxy)acetamido]-3-hydroxybicyclo[2.2.2]octan-1-yl}-6-methylimidazo[1,2-a]pyridine-2-carboxamide], which EC50 is on record?
A: 250 to 1000 nM

Q: With `O=C(COc1ccc(Cl)c(F)c1)NC12CCC(NC(=O)c3cnc(C(F)F)cn3)(CC1)C(F)C2` (centres unmarked) [Compound 373, N-{4-[2-(4-chloro-3-fluorophenoxy)acetamido]-2-fluorobicyclo[2.2.2]octan-1-yl}-5-(difluoromethyl)pyrazine-2-carboxamide] as the compound, how does the EC50 read?
A: 250 to 1000 nM

Q: Which EC50 does the source give for `CCc1csc(C(=O)NC23CC(NC(=O)COc4ccc(Cl)c(F)c4)(C2)C3)n1` [Compound 919, N-{3-[2-(4-chloro-3-fluorophenoxy)acetamido]bicyclo[1.1.1]pentan-1-yl}-4-ethyl-1,3-thiazole-2-carboxamide] here?
A: < 50 nM

Q: `Cn1cc(-c2cc(C(=O)NC34CC(NC(=O)COc5ccc(Cl)c(F)c5)(C3)C4)on2)cn1` [Compound 835, N-{3-[2-(4-chloro-3-fluorophenoxy)acetamido]bicyclo[1.1.1]pentan-1-yl}-3-(1-methyl-1H-pyrazol-4-yl)-1,2-oxazole-5-carboxamide] was tested. Which EC50 did it give?
A: 1000 to 2000 nM

Q: Which EC50 does the source give for `Cc1cc(C(=O)NC23CCC(NC(=O)COc4ccc(Cl)c(F)c4)(CC2)C(O)C3)oc1C` (centres unmarked) [Compound 474, N-{4-[2-(4-chloro-3-fluorophenoxy)acetamido]-3-hydroxybicyclo[2.2.2]octan-1-yl}-4,5-dimethylfuran-2-carboxamide] here?
A: 50 to 250 nM
